From the supplement of paper PMC10307832

Assays:
Assay in all cases: relative viability (nuclei count vs DMSO), 5 days (fraction); higher = more cells survive
201T = test system: 201T
Summary of the method: (§1)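 One day after seeding in 1536-well plates, lung cancer cell lines were dosed by pin tool. Dosing was either single-drug or a fixed anchor-drug dose plus five library-drug doses (not always all listed) in √10 steps. After 5 days, nuclei were stained in one fix-and-stain step and counted on 4× images, and relative viability is the nuclei count of treated wells over that of vehicle wells, given as the median of duplicate plates.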

BEN = test system: BEN
Summary of the method: as §1

COR-L 105 = test system: COR-L 105
Summary of the method: as §1

EMC-BAC-2 = test system: EMC-BAC-2
Summary of the method: as §1

H3255 = test system: H3255
Summary of the method: as §1

HARA = test system: HARA
Summary of the method: as §1

HCC-78 = test system: HCC-78
Summary of the method: as §1

HOP-62 = test system: HOP-62
Summary of the method: as §1

LC-2-ad = test system: LC-2-ad
Summary of the method: as §1

LOU-NH91 = test system: LOU-NH91
Summary of the method: as §1

LU99A = test system: LU99A
Summary of the method: as §1

LXF-289 = conditions: first compound 0.002 µM
Summary of the method: as §1

CCNC(=O)c1noc(-c2cc(C(C)C)c(O)cc2O)c1-c1ccc(CN2CCOCC2)cc1 [Luminespib] + CS(=O)(=O)N1CCN(Cc2cc3nc(-c4cccc5[nH]ncc45)nc(N4CCOCC4)c3s2)CC1 [Pictilisib] (partner 1 µM)
relative viability (201T; first compound 0.002 µM): 0.647
relative viability (201T; first compound 0.006325 µM): 0.693
relative viability (201T; first compound 0.02 µM): 0.649
relative viability (201T; first compound 0.06325 µM): 0.721
relative viability (201T; first compound 0.2 µM): 0.58
relative viability (BEN; first compound 0.002 µM): 0.514
relative viability (BEN; first compound 0.006325 µM): 0.597
relative viability (BEN; first compound 0.02 µM): 0.332
relative viability (BEN; first compound 0.06325 µM): 0.266
relative viability (BEN; first compound 0.2 µM): 0.191
relative viability (COR-L 105; first compound 0.002 µM): 0.386
relative viability (COR-L 105; first compound 0.006325 µM): 0.488
relative viability (COR-L 105; first compound 0.02 µM): 0.248
relative viability (COR-L 105; first compound 0.06325 µM): 0.223
relative viability (COR-L 105; first compound 0.2 µM): 0.254
relative viability (EMC-BAC-2; first compound 0.002 µM): 0.54
relative viability (EMC-BAC-2; first compound 0.006325 µM): 0.511
relative viability (EMC-BAC-2; first compound 0.02 µM): 0.417
relative viability (EMC-BAC-2; first compound 0.06325 µM): 0.573
relative viability (EMC-BAC-2; first compound 0.2 µM): 0.163
relative viability (H3255; first compound 0.002 µM): 0.497
relative viability (H3255; first compound 0.006325 µM): 0.474
relative viability (H3255; first compound 0.02 µM): 0.31
relative viability (H3255; first compound 0.06325 µM): 0.327
relative viability (H3255; first compound 0.2 µM): 0.179
relative viability (HARA; first compound 0.002 µM): 0.295
relative viability (HARA; first compound 0.006325 µM): 0.396
relative viability (HARA; first compound 0.02 µM): 0.174
relative viability (HARA; first compound 0.06325 µM): 0.531
relative viability (HARA; first compound 0.2 µM): 0.0744
relative viability (HCC-78; first compound 0.002 µM): 0.204
relative viability (HCC-78; first compound 0.06325 µM): 0.267
relative viability (HCC-78; first compound 0.2 µM): 0.279
relative viability (HOP-62; first compound 0.002 µM): 0.678
relative viability (HOP-62; first compound 0.006325 µM): 0.838
relative viability (HOP-62; first compound 0.02 µM): 0.43
relative viability (HOP-62; first compound 0.06325 µM): 0.164
relative viability (HOP-62; first compound 0.2 µM): 0.0784
relative viability (LC-2-ad; first compound 0.002 µM): 0.526
relative viability (LC-2-ad; first compound 0.006325 µM): 0.477
relative viability (LC-2-ad; first compound 0.02 µM): 0.276
relative viability (LC-2-ad; first compound 0.06325 µM): 0.11
relative viability (LC-2-ad; first compound 0.2 µM): 0.0708
relative viability (LOU-NH91; first compound 0.002 µM): 0.53
relative viability (LOU-NH91; first compound 0.006325 µM): 0.566
relative viability (LOU-NH91; first compound 0.02 µM): 0.469
relative viability (LOU-NH91; first compound 0.06325 µM): 0.367
relative viability (LOU-NH91; first compound 0.2 µM): 0.358
relative viability (LU99A; first compound 0.002 µM): 0.351
relative viability (LU99A; first compound 0.006325 µM): 0.36
relative viability (LU99A; first compound 0.02 µM): 0.226
relative viability (LU99A; first compound 0.06325 µM): 0.153
relative viability (LU99A; first compound 0.2 µM): 0.112
relative viability (LXF-289): 0.75
